Assay results taken from paper PMC7756583, “Hydroxamic Acids Immobilized on Resins (HAIRs): Synthesis of Dual‐Targeting HDAC Inhibitors and HDAC Degraders (PROTACs)” (Angewandte Chemie (International Ed. in English), 2020).
“And” between values parts separate entries of the source, which are not always exact repeats. Equal entries are not always repeated. “Also recorded” adds a separate entry of the source. Where two headings read alike, the source gives them in different places.

Tests used:
HDAC1 [1] = target: T1, HDAC1 (Homo sapiens, UniProt Q13547); test: In-vitro human HDAC1 fluorogenic inhibition assay (ZMAL substrate); format: biochemical
T1 sequence (Q13547 whole entry): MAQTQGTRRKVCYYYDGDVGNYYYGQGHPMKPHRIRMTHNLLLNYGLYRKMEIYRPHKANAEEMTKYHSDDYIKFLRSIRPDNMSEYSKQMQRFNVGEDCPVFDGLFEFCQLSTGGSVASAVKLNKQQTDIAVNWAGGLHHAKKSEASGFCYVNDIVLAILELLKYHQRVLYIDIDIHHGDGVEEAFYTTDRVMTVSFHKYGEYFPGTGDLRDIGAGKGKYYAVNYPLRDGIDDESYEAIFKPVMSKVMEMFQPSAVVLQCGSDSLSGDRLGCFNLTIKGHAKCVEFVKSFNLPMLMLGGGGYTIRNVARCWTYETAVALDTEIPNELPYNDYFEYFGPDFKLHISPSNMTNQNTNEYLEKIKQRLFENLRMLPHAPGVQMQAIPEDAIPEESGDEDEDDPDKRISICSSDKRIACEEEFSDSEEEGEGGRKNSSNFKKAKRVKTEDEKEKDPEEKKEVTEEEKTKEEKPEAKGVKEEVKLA

HDAC6 [2] = target: T2, HDAC6 (Homo sapiens, UniProt Q9UBN7); test: In-vitro human HDAC6 fluorogenic inhibition assay (ZMAL substrate); format: biochemical
T2 sequence (Q9UBN7 1-1215): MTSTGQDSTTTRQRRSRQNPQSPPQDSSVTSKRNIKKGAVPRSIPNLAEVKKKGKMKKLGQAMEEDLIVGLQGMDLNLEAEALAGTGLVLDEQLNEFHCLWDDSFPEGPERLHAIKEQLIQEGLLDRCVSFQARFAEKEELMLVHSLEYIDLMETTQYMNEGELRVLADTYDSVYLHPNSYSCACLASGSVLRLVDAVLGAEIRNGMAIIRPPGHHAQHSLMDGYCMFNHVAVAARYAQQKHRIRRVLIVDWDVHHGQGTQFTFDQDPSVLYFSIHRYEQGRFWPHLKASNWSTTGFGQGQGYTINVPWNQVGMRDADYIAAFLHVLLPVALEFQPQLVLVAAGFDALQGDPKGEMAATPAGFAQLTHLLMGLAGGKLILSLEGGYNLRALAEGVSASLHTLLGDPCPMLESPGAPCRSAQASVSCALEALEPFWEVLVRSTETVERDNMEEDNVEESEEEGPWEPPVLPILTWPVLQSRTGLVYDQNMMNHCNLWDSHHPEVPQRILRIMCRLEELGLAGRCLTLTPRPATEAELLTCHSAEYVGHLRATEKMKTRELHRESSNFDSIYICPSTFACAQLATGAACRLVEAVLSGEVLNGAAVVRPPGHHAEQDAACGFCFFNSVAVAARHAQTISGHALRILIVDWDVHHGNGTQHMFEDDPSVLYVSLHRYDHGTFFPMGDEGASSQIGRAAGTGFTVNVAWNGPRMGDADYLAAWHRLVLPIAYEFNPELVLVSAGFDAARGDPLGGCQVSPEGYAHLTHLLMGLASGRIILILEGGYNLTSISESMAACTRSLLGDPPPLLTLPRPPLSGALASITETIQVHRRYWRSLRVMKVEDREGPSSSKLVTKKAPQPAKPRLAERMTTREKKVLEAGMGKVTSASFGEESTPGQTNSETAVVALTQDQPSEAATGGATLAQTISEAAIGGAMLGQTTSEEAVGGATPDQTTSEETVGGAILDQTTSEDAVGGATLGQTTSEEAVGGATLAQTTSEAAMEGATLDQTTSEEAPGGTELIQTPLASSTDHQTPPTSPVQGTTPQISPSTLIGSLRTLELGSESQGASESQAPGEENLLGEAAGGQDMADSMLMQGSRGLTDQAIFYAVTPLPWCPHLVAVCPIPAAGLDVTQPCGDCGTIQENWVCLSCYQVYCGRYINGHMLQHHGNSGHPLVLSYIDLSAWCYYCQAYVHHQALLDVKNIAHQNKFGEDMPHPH

[3] = system: human tongue squamous cell carcinoma cell line Cal27; test: MTT cell viability assay, Cal27; format: cell-based; conditions: for IC50: Homo sapiens, read-out: Antiproliferative Effect IC50 Cal27
[4] = system: human primary glioblastoma cell line U87; test: MTT cell viability assay, U87; format: cell-based; conditions: 72 h, read-out: Antiproliferative Effect IC50 U87
[5] = system: human primary glioblastoma cell line U251; test: MTT cell viability assay, U251; format: cell-based; conditions: for IC50: Homo sapiens, read-out: Antiproliferative Effect IC50 U251
human recombinant HDAC2 = human recombinant HDAC2 (Homo sapiens, UniProt Q92769); test: In-vitro human HDAC2 fluorogenic inhibition assay (ZMAL substrate); format: biochemical
human recombinant HDAC2, sequence (Q92769 whole entry): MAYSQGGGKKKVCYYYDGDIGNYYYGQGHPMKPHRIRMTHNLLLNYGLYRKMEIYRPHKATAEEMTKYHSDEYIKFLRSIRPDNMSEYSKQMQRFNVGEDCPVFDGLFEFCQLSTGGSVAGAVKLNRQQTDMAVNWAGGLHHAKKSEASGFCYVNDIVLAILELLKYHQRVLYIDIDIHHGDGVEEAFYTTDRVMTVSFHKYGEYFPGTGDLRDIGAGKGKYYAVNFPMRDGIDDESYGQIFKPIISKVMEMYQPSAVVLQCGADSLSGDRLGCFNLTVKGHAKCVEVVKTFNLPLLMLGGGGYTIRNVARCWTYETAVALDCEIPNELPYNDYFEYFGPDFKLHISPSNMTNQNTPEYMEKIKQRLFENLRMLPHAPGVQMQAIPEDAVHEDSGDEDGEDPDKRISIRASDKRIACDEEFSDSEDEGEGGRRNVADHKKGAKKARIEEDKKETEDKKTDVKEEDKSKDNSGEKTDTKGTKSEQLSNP

human recombinant HDAC3 = human recombinant HDAC3 (Homo sapiens, UniProt O15379); test: In-vitro human HDAC3 fluorogenic inhibition assay (ZMAL substrate); format: biochemical
human recombinant HDAC3, sequence (O15379 whole entry): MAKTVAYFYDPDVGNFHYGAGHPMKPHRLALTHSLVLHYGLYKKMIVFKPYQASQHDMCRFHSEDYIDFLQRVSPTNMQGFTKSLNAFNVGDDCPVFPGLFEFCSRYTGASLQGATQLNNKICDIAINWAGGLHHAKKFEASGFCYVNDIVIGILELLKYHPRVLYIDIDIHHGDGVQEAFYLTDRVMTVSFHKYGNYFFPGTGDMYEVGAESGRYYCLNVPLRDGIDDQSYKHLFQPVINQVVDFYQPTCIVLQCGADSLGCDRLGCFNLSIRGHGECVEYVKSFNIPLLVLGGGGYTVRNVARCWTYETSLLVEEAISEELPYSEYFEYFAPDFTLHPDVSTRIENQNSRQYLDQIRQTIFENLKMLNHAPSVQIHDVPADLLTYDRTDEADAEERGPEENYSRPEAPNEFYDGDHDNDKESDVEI
human recombinant HDAC3, sequence (Q9Y618 395-489 partner limits assumed): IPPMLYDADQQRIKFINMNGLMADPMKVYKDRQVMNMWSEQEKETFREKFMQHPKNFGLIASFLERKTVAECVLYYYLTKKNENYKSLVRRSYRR

HDAC8 recombinant enzyme = target: T3, HDAC8 recombinant enzyme (Homo sapiens, UniProt Q9BY41); test: In-vitro human HDAC8 assay (Boc-Lys-(TFa)-AMC substrate); format: biochemical
T3 sequence (Q9BY41 1-377): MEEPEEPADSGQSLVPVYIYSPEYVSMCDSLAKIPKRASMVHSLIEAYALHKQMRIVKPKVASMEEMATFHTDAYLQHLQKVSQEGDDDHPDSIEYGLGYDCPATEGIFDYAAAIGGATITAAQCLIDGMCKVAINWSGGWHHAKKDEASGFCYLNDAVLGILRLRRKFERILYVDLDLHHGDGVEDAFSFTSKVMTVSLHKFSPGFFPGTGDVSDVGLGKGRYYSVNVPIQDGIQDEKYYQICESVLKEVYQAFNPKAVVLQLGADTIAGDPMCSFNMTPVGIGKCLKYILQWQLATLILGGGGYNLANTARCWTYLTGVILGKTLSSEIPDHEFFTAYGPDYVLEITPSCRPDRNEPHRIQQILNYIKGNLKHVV

HDAC6 [6] = target: T2, HDAC6; test: Immunoblot, HDAC6 degradation in HL60 cells; format: cell-based; conditions: 0.1 μM, 1 μM and 10 μM, 48 hours
HDAC1 [7] = target: T1, HDAC1; test: Immunoblot, HDAC1 degradation in HL60 cells; format: cell-based; conditions: 0.1 μM, 1 μM and 10 μM, 48 hours
[8] = system: histone H3 acetylation (marker of reduced HDAC1-3 activity); test: Immunoblot, acetyl histone H3 in HL60 cells; format: cell-based
[9] = system: α-tubulin acetylation (marker of reduced HDAC6 activity); test: Immunoblot, acetylated α-tubulin in HL60 cells; format: cell-based
[10] = system: γ-H2AX formation in Cal27 cells; test: γ-H2AX expression DNA damage assay; format: cell-based, human
Cal27 cells = format: cell-based, human
[11] = system: caspase 3/7 activation in Cal27 cells; format: cell-based, human
[12] = fluorogenic assay, n≥2, each in duplicate wells, read-out: Target Inhibition IC50 HDAC1
[13] = fluorogenic assay, n≥2, each in duplicate wells, read-out: Target Inhibition IC50 HDAC6
[14] = CAL-27, MTT assay, 72 h, n≥3, each in triplicate wells
[15] = MTT assay, n≥3, each in triplicate wells
[16] = n≥2, each in duplicate wells, read-out: HDAC Inhibition IC50 HDAC 2
[17] = n≥2, each in duplicate wells, read-out: HDAC Inhibition IC50 HDAC 3
[18] = U-251, MTT assay, 72 h, n≥3, each in triplicate wells, n.e.: no effect up to 100 μM

IC50 (HDAC1 [1]; [12]) | IC50 (HDAC6 [2]; [13]) | IC50 [3, 14] | IC50 [4, 15] | IC50 [5, 18] | Compound | IC50 (HDAC1 [1]) | IC50 (HDAC6 [2]) | IC50 ([3]; CAL-27, 72 h) | IC50 [4] | IC50 ([5]; U-251, 72 h) | also measured
35.1 ± 5.32 µM | 4.99 ± 0.129 µM | 97.1 ± 16.3 µM | 323 ± 107 µM |  | Cn1nnc2c(C(=O)NCCCC(=O)NO)ncn2c1=O [Compound 3 d] |  |  |  |  |  | Antiproliferative Effect IC50 U251 ([5]; MTT assay, 72 h, n≥3, each in triplicate wells, n.e.: no effect up to 100 μM): n.e.
 |  |  |  |  | O=C(CCCNC(=O)CCCc1ccc(N(CCCl)CCCl)cc1)NO [Compound 3 f] | 8.21 ± 0.183 µM | 4.6 ± 0.082 µM | 8.67 ± 1.31 µM | 46.1 ± 5.71 µM | 20.1 ± 2.41 µM | 
 |  |  |  |  | Cn1c(CCCCCCC(=O)NO)nc2cc(N(CCCl)CCCl)ccc21 [tinostamustine, reference compound] | 0.047 ± 0.003 µM | 0.011 ± 0.001 µM | 2.94 ± 0.07 µM | 8.32 ± 0.55 µM | 10.2 ± 0.62 µM | 
0.174 ± 0.009 µM | 0.027 µM |  |  |  | O=C(CCCCCCNC(=O)c1ccc(NC(=O)COCCOCCNC(=O)COc2cccc3c2C(=O)N(C2CCC(=O)NC2=O)C3=O)cc1)NO (stereo not shown) [PROTAC 4] |  |  |  |  |  | IC50 (human recombinant HDAC2; [16]): 0.248 ± 0.049 µM; IC50 (human recombinant HDAC3; [17]): 0.159 ± 0.031 µM; IC50 (HDAC8 recombinant enzyme; read-out: HDAC Inhibition IC50 HDAC 8): 3.42 ± 0.32 µM; HDAC6 degradation (Western blot) (HDAC6 [6]): able to degrade especially HDAC6; HDAC1 degradation (Western blot) (HDAC1 [7]): also HDAC1 in a concentration dependent manner; acetylation of histone H3 [8]: significant hyperacetylation; acetylation of α-tubulin [9]: significant hyperacetylation
0.146 ± 0.008 µM | 0.072 ± 0.008 µM | 15.4 ± 1.61 µM | 141 ± 20.7 µM | 97.8 ± 9.07 µM | Cn1nnc2c(C(=O)NCc3ccc(/C=C/C(=O)NO)cc3)ncn2c1=O [Compound 3 l] |  |  |  |  |  | γ-H2AX formation ([10]; Cal27 cells, IC50 (from MTT assay), 24 h): not different from control; γ-H2AX formation ([10]; Cal27 cells, fivefold IC50 (from MTT assay), 24 h): only weak DNA damage
0.143 ± 0.005 µM | 0.038 ± 0.004 µM | 9.9 ± 1.24 µM | 122 ± 56 µM | 48.2 ± 7.35 µM | O=C(CCCCCCNC(=O)c1ncn2c(=O)n(CCCl)nnc12)NO [Compound 3 j] |  |  |  |  |  | 
 |  |  |  |  | O=C(CCCc1ccc(N(CCCl)CCCl)cc1)NCc1ccc(C(=O)NO)cc1 [Compound 3 c] | 0.518 ± 0.065 µM | 0.032 ± 0.003 µM | 6.89 ± 1.04 µM | 23.9 ± 3.41 µM | 22 ± 3.09 µM | 
 |  |  |  |  | O=C(/C=C/c1ccc(CNC(=O)CCCc2ccc(N(CCCl)CCCl)cc2)cc1)NO [Compound 3 n] | 0.151 ± 0.021 µM | 0.062 ± 0.001 µM | 2.68 ± 0.31 µM | 19.8 ± 3.16 µM | 14.5 ± 1.59 µM | IC50 (human recombinant HDAC2): 0.432 ± 0.015 µM; IC50 (human recombinant HDAC3): 0.187 ± 0.009 µM; IC50 (HDAC8 recombinant enzyme): 4.04 ± 0.28 µM; improved antiproliferative effect in comparison to parent compound CAB [3]: up to 10 fold; γ-H2AX formation [10]: significant increase in γ‐H2AX formation; also recorded: significantly more active than 3 l and 3 m; also recorded: significantly more effective than the sum of the effects of 3 o and CAB; also recorded: significantly greater DNA damage (γ‐H2AX assay) than 3 o; induction of apoptosis (subG1 nuclei) (Cal27 cells): more potent than 3 o, cisplatin, vorinostat, and CAB in inducing apoptosis; caspase 3/7 activation [11]: significantly more effective than the sum of the effects of 3 o and CAB; also recorded: significantly stronger than the sum of the effects of even 100 μM CAB and 30 μM 3 o; combination index (CI) [11]: 0,92 and 0,69 and 0,70
 |  | 3.56 ± 0.29 µM | 57.4 ± 9.51 µM | 84.5 ± 7.3 µM | NC(=O)c1ncn2c(=O)n(CCCl)nnc12 [MTZ, mitozolomide, reference compound] |  |  |  |  |  | 
 |  |  |  |  | O=C(CCCCCCNC(=O)CCCc1ccc(N(CCCl)CCCl)cc1)NO [Compound 3 k] | 0.244 ± 0.041 µM | 0.063 ± 0.001 µM | 6.17 ± 0.51 µM | 39.2 ± 7.16 µM | 27 ± 3.55 µM | 
 |  |  |  |  | O=C(CCCCCNC(=O)CCCc1ccc(N(CCCl)CCCl)cc1)NO [Compound 3 h] | 0.444 ± 0.053 µM | 0.121 ± 0.008 µM | 7.5 ± 0.62 µM | 43.9 ± 15.3 µM | 25.1 ± 3.27 µM | 
0.156 ± 0.008 µM | 0.066 ± 0.001 µM | 6.59 ± 0.44 µM | 27.7 ± 6.52 µM | 23.9 ± 3.51 µM | O=C(/C=C/c1ccc(CNC(=O)CCCc2ccccc2)cc1)NO [Compound 3 o] |  |  |  |  |  | IC50 (human recombinant HDAC2; [16]): 0.194 ± 0.034 µM; IC50 (human recombinant HDAC3; [17]): 0.117 ± 0.02 µM
0.394 ± 0.02 µM | 0.023 ± 0.002 µM | 16.8 ± 3.62 µM | 147 ± 19.7 µM | 44.5 ± 8.94 µM | O=C(NO)c1ccc(CNC(=O)c2ncn3c(=O)n(CCCl)nnc23)cc1 [Compound 3 b] |  |  |  |  |  | 
 |  | 56.8 ± 5.05 µM | 144 ± 15.6 µM | 457 ± 57.3 µM | Cn1nnc2c(C(N)=O)ncn2c1=O [TMZ, temozolomide, reference compound] |  |  |  |  |  | 
16.2 ± 0.07 µM | 2.37 ± 0.086 µM | 87.8 ± 9.52 µM | 413 ± 77.7 µM | 461 ± 89.9 µM | O=C(CCCNC(=O)c1ncn2c(=O)n(CCCl)nnc12)NO [Compound 3 e] |  |  |  |  |  | 
 |  |  |  |  | O=C(O)CCCc1ccc(N(CCCl)CCCl)cc1 [CAB, chlorambucil, reference compound] |  |  | 23.7 ± 2.26 µM | 86.3 ± 17.5 µM | 48.7 ± 11.9 µM | 
0.161 ± 0.006 µM | 0.031 ± 0.002 µM | 10.2 ± 1.54 µM | 166 ± 33.6 µM | 86.2 ± 13.1 µM | Cn1nnc2c(C(=O)NCCCCCCC(=O)NO)ncn2c1=O [Compound 3 i] |  |  |  |  |  | 
0.681 ± 0.015 µM | 0.094 ± 0.002 µM | 29 ± 3.73 µM | 262 ± 75.6 µM | 140 ± 17.8 µM | O=C(CCCCCNC(=O)c1ncn2c(=O)n(CCCl)nnc12)NO [Compound 3 g] |  |  |  |  |  | 
